Data published in US7893074B2, “2, 4-pyrimidinediamines useful in the treatment of neoplastic diseases, inflammatory and immune system disorders” (Novartis AG, priority 2003, dated 2011).
Where two headings read alike, the source gives them in different places.

Tests used:
[1] = biological target: Focal Adhesion Kinase (FAK) (Homo sapiens, UniProt Q05397); assay: FAK assay system (Focal Adhesion Kinase inhibition); assay type: biochemical
[2] = test system: Mouse mammary carcinoma 4T1 cells; assay: Anchorage-independent tumor cell growth assay; assay type: cell-based
Protocol: Cells are cultured for 2 h and inhibitors are added at various concentrations in a final concentration of 0.1% DMSO. After 48 h, cell growth is assayed with the cell counting kit-8 (Wako Pure Chemical), which uses a water soluble tetrazolium salt WST8. Twenty μL of the reagent is added into each well and cells are further cultured for 2 h. The optical density is measured at 450 nm.

Chain of Focal Adhesion Kinase (FAK) (Q05397 384-706): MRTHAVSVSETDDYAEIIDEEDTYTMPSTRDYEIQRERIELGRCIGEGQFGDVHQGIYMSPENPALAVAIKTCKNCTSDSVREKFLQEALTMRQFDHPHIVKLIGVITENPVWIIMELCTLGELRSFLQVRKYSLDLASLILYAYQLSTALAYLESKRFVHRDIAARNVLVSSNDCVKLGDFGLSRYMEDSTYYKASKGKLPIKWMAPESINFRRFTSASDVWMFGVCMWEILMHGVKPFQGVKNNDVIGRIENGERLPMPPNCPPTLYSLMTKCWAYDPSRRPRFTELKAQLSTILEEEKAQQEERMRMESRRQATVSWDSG

SMILES | IC50 ([1]; read-out: FAK IC50) [µM] | IC50 ([2]; Mus musculus, 4T1) [µM] | IC50 [2] [µM] | IC50 ([1]; FAK IC50) [µM]
CCN1CCN(c2ccc(Nc3ncc(Cl)c(Nc4ccccc4S(=O)(=O)C(C)C)n3)c(OC)c2)CC1 [Example 28-12] | 0.0032 | 0.43 | – | –
CNC(=O)c1ccccc1Nc1nc(Nc2cc(N3CCC(N4CCCCC4)CC3)ccc2OC)ncc1Cl [Example 7-24] | 0.0051 | 0.09 | – | –
COc1cc(N2CCOCC2)ccc1Nc1ncc(Cl)c(Nc2ccccc2S(=O)(=O)NC2CCCC2)n1 [Example 25-1] | – | 1 | – | 0.0085
COc1cc(N2CCN(C)CC2)ccc1Nc1ncc(Cl)c(Nc2cccc3c2C(=O)N(C)C3)n1 [Example 12-2] | 0.0016 | 0.05 | – | –
CNC(=O)c1cc(N2CCCC2)ccc1Nc1nc(Nc2ccc(N3CCN(C)CC3)cc2OC)ncc1Cl [Example 15-1] | 0.015 | 0.47 | – | –
COc1cc(N2CCOCC2)ccc1Nc1ncc(Cl)c(Nc2cccc3c2C(=O)CC3)n1 [Example 14-4] | 0.018 | 0.54 | – | –
CNC(=O)c1cc(F)c(F)cc1Nc1nc(Nc2ccc(N3CCOCC3)cc2OC)ncc1Cl [Example 14-3] | – | 1.01 | – | 0.03
CNS(=O)(=O)c1ccccc1Nc1nc(Nc2ccc(F)cc2F)ncc1Br [Example 3-36] | – | 2.8 | – | 0.043
COc1cc([N+](=O)[O-])ccc1Nc1ncc(Cl)c(Nc2ccccc2S(=O)(=O)C(C)C)n1 [Example 28-7] | – | > 10 | – | 0.047
CNS(=O)(=O)c1ccccc1Nc1nc(Nc2ccc(OC3CCN(C)C3)cc2OC)ncc1Br (stereo not shown) [Example 3-82] | – | – | 0.07 | –
CNS(=O)(=O)c1ccccc1Nc1nc(Nc2cc(C(=O)N3CCN(C)CC3)ccc2OC)ncc1Br [Example 3-49] | 0.039 | 0.39 | – | –
CNC(=O)c1ccccc1Nc1nc(Nc2ccc(N3CCC[C@H](C(N)=O)C3)cc2OC)ncc1Cl [Example 7-18] | – | – | – | 0.0062
CNC(=O)c1ccccc1Nc1nc(Nc2cc(N3CCN(C)CC3)ccc2OC)ncc1Cl [Example 7-22] | 0.025 | 0.48 | – | –
COc1cc(N2CCOCC2)ccc1Nc1ncc(Cl)c(Nc2ccccc2C(=O)N2CCCC2)n1 [Example 14-6] | 0.063 | 1.11 | – | –
CNC(=O)c1ccccc1Nc1nc(Nc2ccc(N3CCNCC3)cc2OC)ncc1Cl [Example 7-26] | 0.0041 | 0.15 | – | –
CNS(=O)(=O)c1ccccc1Nc1nc(Nc2cccc(N(C)C)c2C)ncc1Br [Example 3-53] | – | 0.21 | – | 0.006
CCNC(=O)c1ccccc1Nc1nc(Nc2ccc(N3CCC(N4CCCCC4)CC3)cc2OC)ncc1Cl [Example 9-3] | – | – | 0.37 | –
COc1cc(N2CCCC(C(N)=O)C2)ccc1Nc1ncc(Cl)c(Nc2ccccc2S(=O)(=O)NC(C)C)n1 (stereo not shown) [Example 19-19] | 0.0057 | 0.4 | – | –
COc1cc(OCCN2CCOCC2)ccc1Nc1ncc(Cl)c(Nc2ccccc2S(=O)(=O)NC(C)C)n1 [Example 19-29] | 0.0019 | – | – | –

More lines, main results first:

IC50 ([1]; read-out: FAK IC50) [µM] | IC50 ([2]; Mus musculus, 4T1) [µM] | IC50 [2] [µM] | SMILES | IC50 ([1]; FAK IC50) [µM]
0.0025 | 0.38 | – | CNC1CCN(c2ccc(OC)c(Nc3ncc(Cl)c(Nc4ccccc4S(=O)(=O)NC)n3)c2)C1 (stereo not shown) [Example 20-33] | –
0.0063 | 0.04 | – | CNS(=O)(=O)c1ccccc1Nc1nc(Nc2cc(OC)c(N3CCN(C)CC3)cc2OC)ncc1Cl [Example 20-13] | –
– | – | 0.84 | CCC(CC)NS(=O)(=O)c1ccccc1Nc1nc(Nc2ccc(OC3CCN(C)C3)cc2OC)ncc1Cl (stereo not shown) [Example 23-7] | –
0.0095 | – | – | CNS(=O)(=O)c1ccccc1Nc1nc(Nc2cc(OC)c(N3CCOCC3)cc2OC)ncc1Cl [Example 20-12] | –
